Among the data in US20250376461A1, “INDAZOLE DERIVATIVES FOR TREATING TRPM3-MEDIATED DISORDERS” (Katholieke Universiteit Leuven, priority 2022, published 2025) are IC50 values, retold here.

pIC50: −log10 of the molar value.

The target of the assay is T1, mouse TRPM3α2 (mTRPM3) ion channel (Mus musculus, UniProt J9SQF3).
T1 construct: expressed in transfected cells; host or cells: flip-in HEK293
T1 sequence (J9SQF3 1-1709 isoform J9SQF3-12): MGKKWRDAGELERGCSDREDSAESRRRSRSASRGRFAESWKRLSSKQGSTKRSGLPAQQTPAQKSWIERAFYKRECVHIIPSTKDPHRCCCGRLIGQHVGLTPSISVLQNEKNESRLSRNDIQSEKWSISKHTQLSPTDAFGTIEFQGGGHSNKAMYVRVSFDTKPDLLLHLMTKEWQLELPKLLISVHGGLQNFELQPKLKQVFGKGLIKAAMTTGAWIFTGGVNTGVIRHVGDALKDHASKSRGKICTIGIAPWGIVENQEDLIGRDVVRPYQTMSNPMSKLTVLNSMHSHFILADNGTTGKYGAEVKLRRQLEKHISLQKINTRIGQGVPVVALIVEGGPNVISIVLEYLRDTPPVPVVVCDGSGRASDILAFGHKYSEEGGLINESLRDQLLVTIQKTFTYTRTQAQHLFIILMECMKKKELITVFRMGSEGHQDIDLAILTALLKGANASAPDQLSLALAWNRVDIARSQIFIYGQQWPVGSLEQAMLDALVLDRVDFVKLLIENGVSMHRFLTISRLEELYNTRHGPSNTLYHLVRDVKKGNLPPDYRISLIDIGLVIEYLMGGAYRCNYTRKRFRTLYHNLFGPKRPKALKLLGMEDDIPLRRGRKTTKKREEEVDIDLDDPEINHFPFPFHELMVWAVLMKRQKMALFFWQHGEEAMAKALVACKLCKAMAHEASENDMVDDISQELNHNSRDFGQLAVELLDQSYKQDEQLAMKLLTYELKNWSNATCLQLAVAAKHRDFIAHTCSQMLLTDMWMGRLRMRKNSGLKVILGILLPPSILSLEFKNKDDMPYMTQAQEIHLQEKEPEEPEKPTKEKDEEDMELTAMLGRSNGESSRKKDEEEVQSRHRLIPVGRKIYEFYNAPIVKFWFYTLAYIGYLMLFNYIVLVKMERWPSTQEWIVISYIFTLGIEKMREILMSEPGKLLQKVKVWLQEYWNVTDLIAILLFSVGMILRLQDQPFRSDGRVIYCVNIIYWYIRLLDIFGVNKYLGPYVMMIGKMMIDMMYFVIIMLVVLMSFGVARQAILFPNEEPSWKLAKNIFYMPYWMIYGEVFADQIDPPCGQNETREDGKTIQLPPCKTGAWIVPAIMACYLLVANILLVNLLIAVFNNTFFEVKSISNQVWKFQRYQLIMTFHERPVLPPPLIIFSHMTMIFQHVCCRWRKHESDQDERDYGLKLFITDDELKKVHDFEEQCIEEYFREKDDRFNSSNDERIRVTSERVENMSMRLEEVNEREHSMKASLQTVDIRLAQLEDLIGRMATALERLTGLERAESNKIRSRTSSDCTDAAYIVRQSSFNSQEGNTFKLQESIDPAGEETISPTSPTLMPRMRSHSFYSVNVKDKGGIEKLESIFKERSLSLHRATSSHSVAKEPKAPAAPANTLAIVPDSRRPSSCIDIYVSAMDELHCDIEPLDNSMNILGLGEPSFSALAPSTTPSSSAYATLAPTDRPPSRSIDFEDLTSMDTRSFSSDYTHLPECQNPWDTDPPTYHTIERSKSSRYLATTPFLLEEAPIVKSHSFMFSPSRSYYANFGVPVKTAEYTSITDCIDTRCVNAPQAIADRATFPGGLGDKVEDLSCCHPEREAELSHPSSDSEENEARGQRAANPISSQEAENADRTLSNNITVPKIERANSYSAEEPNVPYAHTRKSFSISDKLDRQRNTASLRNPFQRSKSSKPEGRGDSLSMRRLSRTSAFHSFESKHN
The assay is described as follows: TRPM3 ion channel driven Ca2+ uptake, Fluo-4 AM assay, mTRPM3alpha2 overexpressing flip-in HEK293 cells stimulated with pregnenolone sulfate (50 μM). It is filed as cell-based. The following applies: mTRPM3 overexpressing HEK293 cells stimulated with pregnenolone sulfate (50 μM), activity ranges A, B, C. A digest of the protocol:
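Ca2+ influx via mouse TRPM3α2 was opened with pregnenolone sulfate (50 μM) and tracked by Fluo-4 AM fluorescence at 485/535 nm, read directly after adding about 2000 stably transfected HEK293 cells per well to compound. IC50 values come from percent inhibition scaled to vehicle and positive-control inhibitor signals.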
In turn, `Cn1nc2ccc(OCc3ccccn3)cc2c1C(=O)N[C@@H]1CCN(CCO)C1=O` [Cpd 152, N-[(3R)-1-(2-hydroxyethyl)-2-oxopyrrolidin-3-yl]-2-methyl-5-[(pyridin-2-yl)methoxy]-2H-indazole-3-carboxamide] had a pIC50 of 4.70 to 6.00.

`Cn1nccc1COc1ccc2nn(C)c(C(=O)NC3(CO)CC3)c2c1` [Cpd 067, N-[1-(hydroxymethyl)cyclopropyl]-2-methyl-5-[(1-methyl-1H-pyrazol-5-yl)methoxy]-2H-indazole-3-carboxamide] had a pIC50 below 4.70.

Consider `Cn1nc2ccc(OCC3CCC3)cc2c1C(=O)NC(C)(CO)C(N)=O` (single isomer, unassigned) [Cpd 173 - En1], for which the pIC50 is above 6.00.

In the case of `CN(C)C(=O)C1(NC(=O)c2c3cc(OCc4cccnc4C(F)(F)F)ccc3nn2C)CCOC1` (single isomer, unassigned) [Cpd 186 - En1], the pIC50 is 4.70 to 6.00.

On to `Cn1nc2ccc(OCc3ccccn3)cc2c1C(=O)NC1(CO)COC1` [Cpd 100, N-[3-(hydroxymethyl)oxetan-3-yl]-2-methyl-5-[(pyridin-2-yl)methoxy]-2H-indazole-3-carboxamide], for which the pIC50 is 4.70 to 6.00.

With `Cn1ccc(NC(=O)c2c3cc(OCc4ccccc4)ccc3nn2C)n1` [Cpd 014, 5-(benzyloxy)-2-methyl-N-(1-methyl-1H-pyrazol-3-yl)-2H-indazole-3-carboxamide], the pIC50 was 4.70 to 6.00.

In turn, `Cc1ncc(COc2ccc3nn(C(C)C)c(C(=O)NC(C)(CO)C(N)=O)c3c2)s1` (single isomer, unassigned) [Cpd 195 - En1] had a pIC50 below 4.70.

The compound `Cn1nc2ccc(OCC3CC3)cc2c1C(=O)NC1(C(N)=O)CCOC1` (single isomer, unassigned) [Cpd 165 - En2] had a pIC50 below 4.70.

`Cn1nc2ccc(OCc3cccnc3)cc2c1C(=O)NC(C)(CO)C(N)=O` (single isomer, unassigned) [Cpd 190 - En1] gave a pIC50 of 4.70 to 6.00.

For `Cn1nc2ccc(OCc3ccccn3)cc2c1C(=O)NCc1cccc(OC(F)F)c1` [Cpd 210, N-{[3-(difluoromethoxy)phenyl]methyl}-2-methyl-5-[(pyridin-2-yl)methoxy]-2H-indazole-3-carboxamide], the pIC50 is below 4.70.

Turning to `Cc1ncsc1COc1ccc2nn(C)c(C(=O)O)c2c1` [Cpd 199, 2-methyl-5-[(4-methyl-1,3-thiazol-5-yl)methoxy]-2H-indazole-3-carboxylic acid], the pIC50 was below 4.70.

In turn, `Cc1ncc(COc2ccc3nn(C)c(C(=O)N[C@@H](C)C(N)=O)c3c2)s1` [Cpd 119, (2S)-2-({2-methyl-5-[(2-methyl-1,3-thiazol-5-yl)methoxy]-2H-indazol-3-yl}formamido)propanamide] had a pIC50 of 4.70 to 6.00.

Compound `Cn1nc2ccc(OCC3CCC3)cc2c1C(=O)NC1(CO)CCNC1=O` (single isomer, unassigned) [Cpd 159 - En1] had a negative logarithm of the IC50 (pIC50) of 4.70 to 6.00.

`O=C1c2c3cc(OCc4ccccc4F)ccc3nn2CCN1CCO` [Cpd 261, 9-[(2-fluorophenyl)methoxy]-2-(2-hydroxyethyl)-1H,2H,3H,4H-pyrazino[1,2-b]indazol-1-one] showed a pIC50 of 4.70 to 6.00.

`Cc1ccc(COc2ccc3nn(C)c(C(=O)NC4(C(N)=O)CCOC4)c3c2)cn1` (single isomer, unassigned) [Cpd 164 - En1, N-(3-carbamoyloxolan-3-yl)-2-methyl-5-[(6-methylpyridin-3-yl)methoxy]-2H-indazole-3-carboxamide] gave a pIC50 of 4.70 to 6.00.

As to `Cn1nc2ccc(OCC3COC3)cc2c1C(=O)NC(C)(CO)C(N)=O` (single isomer, unassigned) [Cpd 167 - En2], the pIC50 is below 4.70.

With `Cc1ncc(COc2ccc3nn(C)c(C(=O)NC(C)(C)C(N)=O)c3c2)s1` [Cpd 103, 2-methyl-2-({2-methyl-5-[(2-methyl-1,3-thiazol-5-yl)methoxy]-2H-indazol-3-yl}formamido)propanamide], the negative logarithm of the IC50 (pIC50) was 4.70 to 6.00.

Compound `Cn1nc2ccc(OCc3ccccc3F)cc2c1C(=O)NC1(CO)CC1` [Cpd 095, 5-[(2-fluorophenyl)methoxy]-N-[1-(hydroxymethyl)cyclopropyl]-2-methyl-2H-indazole-3-carboxamide] had a negative logarithm of the IC50 (pIC50) of 4.70 to 6.00.

`Cn1ccc(COc2ccc3nn(C)c(C(=O)NC(C)(CO)C(N)=O)c3c2)n1` (single isomer, unassigned) [Cpd 155 - En1] gave a negative-log IC50 (pIC50) below 4.70.

Compound `Cc1ncsc1COc1ccc2nn(C)c(C(=O)NC3CCNC3)c2c1` (single isomer, unassigned) [Cpd 215 - En2] showed a pIC50 of 4.70 to 6.00.

Consider `Cc1ncc(COc2ccc3nn(C(C)C)c(C(=O)NC(C)(CO)C(N)=O)c3c2)s1` (single isomer, unassigned) [Cpd 195 - En2], for which the pIC50 was above 6.00.

As to `Cn1nc2ccc(OCc3cccnc3C(F)(F)F)cc2c1C(=O)NC1CCNC1=O` (centres unmarked) [Cpd 007, 2-methyl-N-(2-oxopyrrolidin-3-yl)-5-{[2-(trifluoromethyl)pyridin-3-yl]methoxy}-2H-indazole-3-carboxamide], the pIC50 is above 6.00.

Consider `Cn1nc2ccc(OCc3ccccc3C(F)F)cc2c1C(=O)NC(C)(CO)C(N)=O` (single isomer, unassigned) [Cpd 191 - En2], for which the pIC50 was above 6.00.

For `Cn1nc2ccc(OCc3ccccn3)cc2c1C(=O)NC1(CO)COC(C)(C)OC1` [Cpd 219, N-[5-(hydroxymethyl)-2,2-dimethyl-1,3-dioxan-5-yl]-2-methyl-5-[(pyridin-2-yl)methoxy]-2H-indazole-3-carboxamide], the negative-log IC50 (pIC50) is below 4.70.

`Cn1nc2ccc(OCc3ccccc3F)cc2c1C(=O)NC1(CO)CCOCC1` [Cpd 096, 5-[(2-fluorophenyl)methoxy]-N-[4-(hydroxymethyl)oxan-4-yl]-2-methyl-2H-indazole-3-carboxamide] showed a pIC50 of 4.70 to 6.00.

With `Cc1ncc(COc2ccc3nn(C)c(C(=O)NC(CO)(CO)CO)c3c2)s1` [Cpd 147, N-[1,3-dihydroxy-2-(hydroxymethyl)propan-2-yl]-2-methyl-5-[(2-methyl-1,3-thiazol-5-yl)methoxy]-2H-indazole-3-carboxamide], the pIC50 was 4.70 to 6.00.

The compound `Cn1nc2ccc(OCc3ccccn3)cc2c1C(=O)NC1CCOCC1` [Cpd 102, 2-methyl-N-(oxan-4-yl)-5-[(pyridin-2-yl)methoxy]-2H-indazole-3-carboxamide] gave a pIC50 below 4.70.

As to `Cn1nc2ccc(OCc3cccnc3C(F)(F)F)cc2c1C(=O)NC1CCN(CCO)C1=O` (centres unmarked) [Cpd 090, N-[1-(2-hydroxyethyl)-2-oxopyrrolidin-3-yl]-2-methyl-5-{[2-(trifluoromethyl)pyridin-3-yl]methoxy}-2H-indazole-3-carboxamide], the pIC50 is 4.70 to 6.00.

For `Cn1nc2ccc(OCc3ccccn3)cc2c1C(=O)NC(CO)c1ccc(F)cc1` (single isomer, unassigned) [Cpd 220 - En1], the pIC50 is below 4.70.

On to `Cn1nc2ccc(OCc3cccnc3C(F)(F)F)cc2c1C(=O)NC1(CO)CC1` [Cpd 022, N-[1-(hydroxymethyl)cyclopropyl]-2-methyl-5-{[2-(trifluoromethyl)pyridin-3-yl]methoxy}-2H-indazole-3-carboxamide], for which the pIC50 was 4.70 to 6.00.

Compound `Cn1nccc1COc1ccc2nn(C)c(C(=O)NC3COCC3O)c2c1` (single isomer, unassigned) [Cpd 056 - Dia2] had a pIC50 below 4.70.

The compound `COCC(C)(CO)NC(=O)c1c2cc(OCc3ccccn3)ccc2nn1C` (single isomer, unassigned) [Cpd 258 - En1] gave a pIC50 of 4.70 to 6.00.

As to `Cn1nc2ccc(OCc3ccccn3)cc2c1C(=O)NC1(CO)CCOCC1` [Cpd 106, N-[4-(hydroxymethyl)oxan-4-yl]-2-methyl-5-[(pyridin-2-yl)methoxy]-2H-indazole-3-carboxamide], the pIC50 is 4.70 to 6.00.

With `C[C@@H](NC(=O)c1c2cc(OCc3ccccn3)ccc2nn1C)C(N)=O` [Cpd 083, (2R)-2-({2-methyl-5-[(pyridin-2-yl)methoxy]-2H-indazol-3-yl}formamido)propanamide], the pIC50 was 4.70 to 6.00.

Take `Cc1ncc(COc2ccc3nn(C)c(C(=O)NC4(CO)COC4)c3c2)s1` [Cpd 105, N-[3-(hydroxymethyl)oxetan-3-yl]-2-methyl-5-[(2-methyl-1,3-thiazol-5-yl)methoxy]-2H-indazole-3-carboxamide]: the pIC50 was 4.70 to 6.00.

For the compound `Cc1ncsc1COc1ccc2nn(C)c(C(=O)NC3CCNC3=O)c2c1` (centres unmarked) [Cpd 064, 2-methyl-5-[(4-methyl-1,3-thiazol-5-yl)methoxy]-N-(2-oxopyrrolidin-3-yl)-2H-indazole-3-carboxamide], the pIC50 was 4.70 to 6.00.

As for `Cn1nc2ccc(OCc3ccccn3)cc2c1C(=O)NC1(C(N)=O)CCOCC1` [Cpd 085, N-(4-carbamoyloxan-4-yl)-2-methyl-5-[(pyridin-2-yl)methoxy]-2H-indazole-3-carboxamide], the negative logarithm of the IC50 (pIC50) is 4.70 to 6.00.

Take `Cn1nc2ccc(OCc3ccccc3)cc2c1C(=O)NC1(C(N)=O)CCC1` [Cpd 033, 5-(benzyloxy)-N-(1-carbamoylcyclobutyl)-2-methyl-2H-indazole-3-carboxamide]: the pIC50 is 4.70 to 6.00.

The compound `Cc1ncc(COc2ccc3nn(C)c(C(=O)NC(C)(CO)C(N)=O)c3c2)s1` (single isomer, unassigned) [Cpd 157 - En1, 3-hydroxy-2-methyl-2-({2-methyl-5-[(2-methyl-1,3-thiazol-5-yl)methoxy]-2H-indazol-3-yl}formamido)propanamide] had a negative logarithm of the IC50 (pIC50) of 4.70 to 6.00.

In turn, `Cn1nc2ccc(OCc3ccccc3F)cc2c1C(=O)NC1(C(N)=O)CCOCC1` [Cpd 097, N-(4-carbamoyloxan-4-yl)-5-[(2-fluorophenyl)methoxy]-2-methyl-2H-indazole-3-carboxamide] had a pIC50 above 6.00.

In turn, `Cn1nc2ccc(OCC3CC3)cc2c1C(=O)N[C@@H](CO)C(N)=O` [Cpd 137, (2S)-2-{[5-(cyclopropylmethoxy)-2-methyl-2H-indazol-3-yl]formamido}-3-hydroxypropanamide] showed a negative logarithm of the IC50 (pIC50) above 6.00.

The pIC50 is the negative decadic logarithm of the IC50, by convention in mol/L.
